{
  "source": "patent EP1283052A1",
  "about": "“Pharmaceutical composition containing caspase-8 and /or caspase-9 useful for overcoming glucocorticoid- and cancer therapy-induced apoptosis of tumours” (Deutsches Krebsforschungszentrum Stiftung des öffentlichen …, priority 2001, dated 2003)",
  "key": {"[1]": {"system": "P693 lung carcinoma xenografts", "assay": "P693 lung carcinoma xenografts in nude mice, tumour volume", "assay_type": "in vivo", "conditions": "cisplatin 5mg/kg/week intraperitoneally for five weeks, absence of DEX; Fig. 1a", "procedure": "• (a) Human epidermoid lung cancer cells (P693) were injected into nude mice. At a tumour volume of 500 mm^3 weekly treatment with cisplatin (5mg/kg/week) was started. Cisplatin was injected intraperitoneally in the absence (CIS) or presence (DEX/CIS) of DEX which was added to the drinking water (0.28 mg/L) for the duration of the experiment. […] As controls, tumor growth of xenografts from mice which received neither cisplatin nor DEX (CO) or from mice which received DEX only (DEX) was determined. The tumour volume in each animal was measured at weekly intervals for a period of 5 weeks. Data are presented as the means +/- SD of 6 to 8 animals. • (b) The human cervical carcinoma cell lines HeLa and P5 were γ-irradiated (10 Gy) or treated with cisplatin (2 µg/ml) in the absence (white bars) or presence (black bars) of DEX (1 µM). The percentage of apoptosis was measured in untreated (CO) and stimulated cells by annexin-staining and FACS-analysis at the time points indicated. (c) P5, P693 and human leukemic T cells (CEM) cells were treated with cisplatin (2 µg/ml) in the absence or presence of DEX as indicated. 24 and 48 h following treatment cells were lysed and caspase-3 activity was determined by a fluorescent caspase-3 assay and spectroscopy."}, "P5, P693 and CEM cells": {"system": "P5, P693 and CEM cells", "assay": "Mitochondrial membrane potential by JC-1 staining and flow cytometry", "assay_type": "cell-based, human", "conditions": "24 h, co-stimulation with cisplatin 2 µg/ml on top of DEX; Fig. 3a", "procedure": "• (a) P5, P693 or CEM cells, either untreated (CO) or stimulated with cisplatin (CIS, 2 µg/ml) were incubated in the absence (white bars) or presence (black bars) of DEX (1 µM). 24 h later cells were stained with the cationic dye JC-1 which indicates mitochondrial depolarization by an increase in green fluorescence. The percentage of green-fluorescent cells was determined by flow cytometry. • (b) P5 cells were treated as described above. 6 or 24 h later mitochondrial fractions were prepared and assayed by Western blotting using a monoclonal antibody which specifically detects the 15 kDa cytochrome c protein. The results depicted here have been performed three times with similar outcome.\n• (A) Cell culture. […] The mice were given 0.28 mg/L DEX in drinking water, and the amount of water consumed was monitored. […] The tumour volumes were measured using callipers, and calculated using, as an approximation, the formula for volume of a hemi-ellipsoid: π(width^2 x length)/6. […] Early apoptotic changes were identified by staining of cells with fluoresceinthiocyanate (FITC)-conjugated annexin V and propidium iodide (Becton Dickinson, Heidelberg, Germany) and analysed by flow cytometry (FACScan, Becton Dickinson) as described (Herr et al., EMBO J. 16 (1997), 6200-6208) • (E) Immunohistochemistry. […] Protein expression was detected by Western blotting as described (Herr et al., 1997). […]"}},
  "data": [
    {"smiles": "N.N.[Cl][Pt][Cl]", "note": "[cisplatin]", "values": [
      {"measurement": "tumour growth", "setting": "[1]", "result": "profound reduction of tumour growth"},
      {"measurement": "percentage of green fluorescence (mitochondrial damage)", "setting": "P5, P693 and CEM cells", "result": "further enhanced"}
    ]}
  ]
}
